# Reference: patent US8791098B2 (priority 2008, dated 2014)
# Assays:
# [1] = tested on: L929, A549, SW-480, U937 and HL-60 cell lines; test: Anti-proliferation MTT assay, comparison over the tested cell lines; format: cell-based
# Procedure: A given number of cells were cultivated in 96-well plates with serial dilutions of the drugs up to 100 ng/ml. Tubulysin A is used as a positive control, whereas methanol is used as a negative control. After 5 days of incubation the metabolic activities of the cells were measured using MTT-assay as described under the methods section.
# [2] = molecular target: T1, preassembled microtubules (Sus scrofa, UniProt P02550+P02554); test: De-polymerization of preassembled microtubules (turbidometry); format: biochemical, porcine; details: drug added after about 5 min polymerization at 37° C., monitored 10 min at 350 nm
# T1 construct: Microtubules proteins were purified from porcine brain; from tissue; host or cells: porcine brain
# Procedure: Tubulin purification: Microtubules proteins were purified from porcine brain by using standard procedures that includes three cycles of temperature-dependent polymerization and de-polymerization, as described elsewhere.
# Polymerisation assay: Tubulin polymerisation was monitored by using turbidometry assay (lit). Samples (200 μl, 10 μM tubulin) in PEM polymerisation buffer (0.1 M PIPES, pH 6.6, 1 mM EGTA, 1 mM MgSO4, and 1 mM GTP), were rapidly warmed to 37° C. in a water-jacketed cuvette holder of a diode array photometer (Beckman spectrophotometer DU 7500). Absorbance at 350 nm where monitored in the absence and the presence of the drugs.
# In order to examine the action of the drug on preassembled microtubules, microtubules proteins were firstly polymerized at 37° C. for approximately 5 min. Then the drug was added, and the stability of the microtubules was measured for further 10 min at 350 nm.
# T1 sequence (P02554 whole entry): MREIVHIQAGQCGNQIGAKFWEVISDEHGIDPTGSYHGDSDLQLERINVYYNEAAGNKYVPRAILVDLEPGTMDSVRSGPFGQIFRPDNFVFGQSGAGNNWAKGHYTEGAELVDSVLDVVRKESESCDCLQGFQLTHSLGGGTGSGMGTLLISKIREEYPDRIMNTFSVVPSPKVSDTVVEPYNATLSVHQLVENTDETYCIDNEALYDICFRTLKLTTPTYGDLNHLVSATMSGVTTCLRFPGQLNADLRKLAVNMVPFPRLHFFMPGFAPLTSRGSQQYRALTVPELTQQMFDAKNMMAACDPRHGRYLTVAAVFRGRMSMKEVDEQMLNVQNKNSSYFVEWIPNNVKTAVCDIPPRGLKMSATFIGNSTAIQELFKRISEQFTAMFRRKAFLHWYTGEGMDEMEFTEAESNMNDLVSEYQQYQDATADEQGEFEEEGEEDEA
# T1 sequence (P02550 whole entry): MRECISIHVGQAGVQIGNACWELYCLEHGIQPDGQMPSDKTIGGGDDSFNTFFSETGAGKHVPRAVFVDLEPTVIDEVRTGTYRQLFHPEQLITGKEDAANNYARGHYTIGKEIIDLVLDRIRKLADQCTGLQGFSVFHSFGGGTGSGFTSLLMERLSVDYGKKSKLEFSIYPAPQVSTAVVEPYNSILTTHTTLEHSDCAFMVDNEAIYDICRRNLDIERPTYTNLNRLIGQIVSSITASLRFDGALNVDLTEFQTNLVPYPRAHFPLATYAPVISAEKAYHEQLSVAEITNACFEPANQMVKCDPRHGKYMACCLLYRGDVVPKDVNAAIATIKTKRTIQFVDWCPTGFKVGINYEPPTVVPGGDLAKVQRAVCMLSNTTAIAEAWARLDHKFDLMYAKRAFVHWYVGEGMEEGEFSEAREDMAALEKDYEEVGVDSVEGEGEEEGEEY
compound,measurement,setting,value
"CC[C@H](C)[C@H](NC(=O)[C@H]1CCCCN1C)C(=O)N(C)[C@H](CCc1nc(C(=O)N[C@@H](Cc2ccccc2)C[C@H](C)C(=O)O)cs1)C(C)C [pre-tubulysin-827, pretubulysin]",potency/toxicity of pre-tubulysin-827 relative to pre-tubulysin-816,[1],5-10 folds
same,de-polymerization of preassembled microtubules,[2],induced de-polymerization of microtubules at substoichiometric concentrations
